Patent US20230133958A1, “COMPOUNDS USEFUL IN MODULATING EGFR AND PI3K” (Mekanistic Therapeutics LLC, priority 2021, published 2023)

Key:
Format in all cases: cell-based
[1] = system: RPMI-8226; assay: NCI COMPARE panel (SRB growth inhibition), RPMI-8226; conditions: Homo sapiens; Leukemia, RPMI-8226, 48 h
Protocol: (§1) The human tumor cell lines of the cancer screening panel are grown in RPMI 1640 medium containing 5% fetal bovine serum and 2 mM L-glutamine. For a typical screening experiment, cells are inoculated into 96 well microtiter plates in 100 µL at plating densities ranging from 5,000 to 40,000 cells/well depending on the doubling time of individual cell lines. After cell inoculation, the microtiter plates are incubated at 37° C., 5% CO2, 95% air and 100% relative humidity for 24 h prior to addition of experimental drugs.
(§2) After 24 h, two plates of each cell line are fixed in situ with TCA, to represent a measurement of the cell population for each cell line at the time of drug addition (Tz). Experimental drugs are solubilized in dimethyl sulfoxide at 400-fold the desired final maximum test concentration and stored frozen prior to use. […]
(§3) Following drug addition, the plates are incubated for an additional 48 h at 37° C., 5 % CO2, 95% air, and 100% relative humidity. […] Bound stain is subsequently solubilized with 10 mM trizma base, and the absorbance is read on an automated plate reader at a wavelength of 515 nm. […] Using the seven absorbance measurements [time zero, (Tz), control growth, (C), and test growth in the presence of drug at the five concentration levels (Ti)], the percentage growth is calculated at each of the drug concentrations levels. Percentage growth inhibition is calculated as: […]

[2] = system: A498; assay: NCI COMPARE panel (SRB growth inhibition), A498; conditions: Homo sapiens; Renal Cancer, A498, 48 h
Protocol: as §1, §2, §3

[3] = system: A549/ATCC; assay: NCI COMPARE panel (SRB growth inhibition), A549/ATCC; conditions: Homo sapiens, Non-Small Cell Lung Cancer, 48 h
Protocol: as §1, §2, §3

[4] = system: MCF7; assay: NCI COMPARE panel (SRB growth inhibition), MCF7; conditions: Homo sapiens; Breast Cancer, MCF7, 48 h
Protocol: as §1, §2, §3

[5] = system: MALME-3M; assay: NCI COMPARE panel (SRB growth inhibition), MALME-3M; conditions: Homo sapiens, Melanoma, 48 h
Protocol: as §1, §2, §3

[6] = system: TK-10; assay: NCI COMPARE panel (SRB growth inhibition), TK-10; conditions: Homo sapiens; Renal Cancer, TK-10, 48 h
Protocol: as §1, §2, §3

[7] = system: DU-145; assay: NCI COMPARE panel (SRB growth inhibition), DU-145; conditions: Homo sapiens; Prostate Cancer, DU-145, 48 h
Protocol: as §1, §2, §3

[8] = system: M14; assay: NCI COMPARE panel (SRB growth inhibition), M14; conditions: Homo sapiens; Melanoma, M14, 48 h
Protocol: as §1, §2, §3

[9] = system: SF-539; assay: NCI COMPARE panel (SRB growth inhibition), SF-539; conditions: Homo sapiens; CNS Cancer, SF-539, 48 h
Protocol: as §1, §2, §3

[10] = system: UACC-257; assay: NCI COMPARE panel (SRB growth inhibition), UACC-257; conditions: Homo sapiens; Melanoma, UACC-257, 48 h
Protocol: as §1, §2, §3

[11] = system: EKVX; assay: NCI COMPARE panel (SRB growth inhibition), EKVX; conditions: Homo sapiens, Non-Small Cell Lung Cancer, 48 h
Protocol: as §1, §2, §3

[12] = system: IGROV1; assay: NCI COMPARE panel (SRB growth inhibition), IGROV1; conditions: Homo sapiens, IGROV-1; Ovarian Cancer, IGROV1, 48 h
Protocol: as §1, §2, §3

[13] = system: COLO 205; assay: NCI COMPARE panel (SRB growth inhibition), COLO 205; conditions: Homo sapiens; Colon Cancer, COLO 205, 48 h
Protocol: as §1, §2, §3

[14] = system: U251; assay: NCI COMPARE panel (SRB growth inhibition), U251; conditions: Homo sapiens, U-251; CNS Cancer, U251, 48 h
Protocol: as §1, §2, §3

[15] = system: BT-549; assay: NCI COMPARE panel (SRB growth inhibition), BT-549; conditions: Homo sapiens; Breast Cancer, BT-549, 48 h
Protocol: as §1, §2, §3

[16] = system: SNB-19; assay: NCI COMPARE panel (SRB growth inhibition), SNB-19; conditions: Homo sapiens; CNS Cancer, SNB-19, 48 h
Protocol: as §1, §2, §3

[17] = system: SK-MEL-5; assay: NCI COMPARE panel (SRB growth inhibition), SK-MEL-5; conditions: Homo sapiens; Melanoma, SK-MEL-5, 48 h
Protocol: as §1, §2, §3

[18] = system: HT29; assay: NCI COMPARE panel (SRB growth inhibition), HT29; conditions: Homo sapiens, HT-29; Colon Cancer, HT29, 48 h
Protocol: as §1, §2, §3

[19] = system: NCI-H322M; assay: NCI COMPARE panel (SRB growth inhibition), NCI-H322M; conditions: Homo sapiens, Non-Small Cell Lung Cancer, 48 h
Protocol: as §1, §2, §3

[20] = system: NCI-H522; assay: NCI COMPARE panel (SRB growth inhibition), NCI-H522; conditions: Homo sapiens; Non-Small Cell Lung Cancer, NCI-H522, 48 h
Protocol: as §1, §2, §3

[21] = system: RXF 393; assay: NCI COMPARE panel (SRB growth inhibition), RXF 393; conditions: Homo sapiens; Renal Cancer, RXF 393, 48 h
Protocol: as §1, §2, §3

[22] = system: OVCAR-8; assay: NCI COMPARE panel (SRB growth inhibition), OVCAR-8; conditions: Homo sapiens; Ovarian Cancer, OVCAR-8, 48 h
Protocol: as §1, §2, §3

[23] = system: CCRF-CEM; assay: NCI COMPARE panel (SRB growth inhibition), CCRF-CEM; conditions: Homo sapiens, Leukemia, 48 h
Protocol: as §1, §2, §3

[24] = system: SK-OV3; assay: NCI COMPARE panel (SRB growth inhibition), SK-OV3; conditions: Homo sapiens, SK-OV-3; Ovarian Cancer, SK-OV3, 48 h
Protocol: as §1, §2, §3

[25] = system: MOLT-4; assay: NCI COMPARE panel (SRB growth inhibition), MOLT-4; conditions: Homo sapiens; Leukemia, MOLT-4, 48 h
Protocol: as §1, §2, §3

| SMILES | GI50 [1] | GI50 [2] | GI50 [3] | GI50 [4] | GI50 [5] | GI50 [6] | GI50 [7] | GI50 [8] | GI50 [9] | GI50 [10] | GI50 [11] | GI50 [12] | GI50 [13] | GI50 [14] | GI50 [15] | GI50 [16] | GI50 [17] | GI50 [18] | GI50 [19] | GI50 [20] | other results |
| --- | --- | --- | --- | --- | --- | --- | --- | --- | --- | --- | --- | --- | --- | --- | --- | --- | --- | --- | --- | --- | --- |
| CS(=O)(=O)Nc1cc(-c2ccc3ncc(C#N)c(Nc4cccc(Cl)c4F)c3c2)cnc1Cl [Compound 10, N-[2-chloro-5-[4-(3-chloro-2-fluoro-anilino)-3-cyano-6-quinolyl]-3-pyridyl]methanesulfonamide] | ≤ 75 nM | ≤ 75 nM | > 250 nM | ≤ 75 nM | 75 to 125 nM | 75 to 125 nM | 125 to 250 nM | > 250 nM | 125 to 250 nM | > 250 nM | > 250 nM | 75 to 125 nM | 125 to 250 nM | ≤ 75 nM | ≤ 75 nM | 125 to 250 nM | ≤ 75 nM | > 250 nM | > 250 nM | > 250 nM | GI50 [21]: ≤ 75 nM; GI50 [22]: > 250 nM; GI50 [23]: ≤ 75 nM; GI50 [24]: > 250 nM; GI50 [25]: 75 to 125 nM |
| CS(=O)(=O)Nc1cc(-c2ccc3ncnc(Nc4cccc(Cl)c4F)c3c2)cnc1Cl [Compound 6, N-[2-chloro-5-[4-(3-chloro-2-fluoro-anilino)quinazolin-6-yl]-3-pyridyl] methanesulfonamide] | 125 to 250 nM | ≤ 75 nM | 125 to 250 nM | ≤ 75 nM | ≤ 75 nM | ≤ 75 nM | 125 to 250 nM | 125 to 250 nM | 125 to 250 nM | 125 to 250 nM | 75 to 125 nM | ≤ 75 nM | 125 to 250 nM | > 250 nM | 75 to 125 nM | 125 to 250 nM | 125 to 250 nM | 125 to 250 nM | 125 to 250 nM | 125 to 250 nM | GI50 [21]: 75 to 125 nM; GI50 [22]: > 250 nM; GI50 [23]: 125 to 250 nM; GI50 [24]: 75 to 125 nM; GI50 [25]: 125 to 250 nM |
